# According to US20220354805A1, “Cannabidiol (CBD) as Chemical for Treating Aging-related Degenerative Diseases and Promoting Health Aging” (Hemix Biotech Limited, priority 2021, published 2022):
# Legend:
# [1] = system: p21 and p16 in wildtype and LMNA^G609G/G609G MEFs; experiment: Western blotting of senescence markers in MEFs; type: cell-based, mouse; conditions: 4-day CBD treatment
# Protocol: In the step of determining the protein expression levels of senescence markers, the primary mouse embryonic fibroblasts (MEFs) at passage 3 were seeded and cultured in 6-well plate and treated with CBD for 4 days. The cells were then washed twice with ice-cold phosphate buffered saline (PBS). RIPA 150 buffer (20 mM Tris-HCl pH 7.5, 1 mM EDTA pH 8.0, 150 mM NaCl, 1% Nonidet P-40, 0.5% sodium deoxycholate) supplemented with 1 mM dithiothreitol (DTT) and proteinase inhibitors was added to the cells and shook at 4° C. for 15 minutes. The cells were then collected into Eppendorf tubes and centrifuged at 12000 rpm at 4° C. for 10 minutes. The supernatant was collected and 6×SDS sample buffer (20 mM Tris-HCl pH 7.5, 30% glycerol, 10% sodium dodecyl sulfate (SDS), 0.6 M DTT, 0.03% bromophenol blue) was added. The samples were boiled for 5 minutes. Then they were ready for sodium dodecyl sulfate-polyacrylamide gel electrophoresis (SDS-PAGE) for Western blotting analysis. Depending on the sizes of target proteins, 7-15% polyacrylamide separating gel and 4% polyacrylamide stacking gel were made. Samples and protein ladders were loaded onto the polyacrylamide gel. Sodium dodecyl sulfate-polyacrylamide gel electrophoresis (SDS-PAGE) was performed in running buffer (25 mM Tris-HCl, 190 mM glycine and 0.1% SDS) under constant voltage of 100V for 20-30 minutes until the samples and protein ladders reached the separating gel. By then, SDS-PAGE was set to run under constant voltage of 120V for about 1 hour, depending on the size of target proteins. The proteins in the separating gel were transferred to polyvinylidene difluoride (PVDF) membrane in transfer buffer (25 mM Tris-HCl, 190 mM glycine, and 20% methanol) at constant current 0.4 A for 1.5 hours on ice. The membranes were blocked with 5% skimmed milk in phosphate buffered saline Tween-20 solution (PBST): 1×PBS and 0.1% Tween-20 and shook at room temperature for 1 hour. Primary antibodies diluted in 5% skimmed milk in PBST were added to the membrane and shook at 4° C. overnight. […]
# LMNA^G609G/G609G MEFs = experiment: Relative nuclear circularity of MEFs; type: cell-based, mouse; conditions: 12-day CBD treatment, vs control
# Protocol: In the step of determining the relative nuclear circularity, the primary mouse embryonic fibroblasts (MEFs) at passage 3 were seeded and cultured in chamber slides. Nuclei were stained using DAPI or LMNA/C antibodies. The fluorescence images were captured using confocal microscopy. The perimeter and area of the individual nucleus were measured using software CellProfiler. Relative nuclear circularity was calculated using the formula: […]
# A value of 1 in relative nuclear circularity indicates a perfect circle. Nuclei with relative nuclear circularity closer to 0 indicate they are more irregularly shaped.
# [2] = system: wildtype and LMNA^G609G/G609G MEFs; experiment: Cell proliferation rate (population doubling level, PDL) of MEFs; type: cell-based, mouse
# Description: In the step of isolating mouse embryo fibroblasts (MEFs), heterozygous (LMNA^G609G/+) mice were set for mating. The date of pregnancy of mice was identified by checking for vaginal plug in the morning following the day of mating. If the vaginal plug was found, the mouse was considered to be pregnant for 0.5 days (E0.5). When the embryos reached E12.5 to E13.5, the pregnant mice were sacrificed, and the embryos were isolated from the mice inside tissue culture hood using sterile utensils. The embryos were placed in phosphate buffered saline (PBS). Their head and liver were removed. A portion of the head was used for genotyping to identify the genotype of each embryo. The body of each embryo was transferred to 1mL of 0.1% Trypsin-EDTA solution in a well of 12-well plate. Using sterile scissors, embryos were cut into small pieces. The 12-well plate was then placed in a 37° C. incubator for 10 minutes. Followed by vigorous pipetting of the embryos in Trypsin-EDTA solution until the embryos wholly dissolved into the solution. The 12-well plate was then placed in 37° C. incubator for 5 minutes. The homogenized solution was then transferred to 9 mL of Gibco's High Glucose Dulbecco's Modified Eagle's Medium (DMEM) supplemented with sodium bicarbonate (3.7 g/L), HEPES (6 g/L), 10% fetal bovine serum (FBS) and penicillin-streptomycin (100 units/mL). The isolated MEFs were considered to be at passage 0 (P0). P3 MEFs were used in experiments as they have optimal cellular responses to stimuli. […]
# In the step of determining the cell's proliferation rate and optimal concentration, primary mouse embryonic fibroblasts (MEFs) at passage 3 were counted by using LUNA-II Automated Cell Counter. […] After 4-day and 8-day treatment, the cells were counted again using LUNA-II Automated Cell Counter. The population doubling level (PDL) which reflects the proliferation rate of cells was calculated by the formula: n=3.32×(logUCY−logI)+X, where n=the PDL number, UCY=the cell yield at that time point, I=the initial cell number, and X=the doubling level of the cells used to initiate the subculture being quantitated.
# [3] = system: premature aging LMNA^G609G/G609G mice; experiment: Healthspan analysis of LMNA^G609G/G609G mice; type: in vivo, mouse
# Protocol: In the step of analyzing the healthspan of LMNA^G609G/G609G mice, for chemical treatment in mice, 2 months old LMNA^G609G/G609G mice were used. They received an intraperitoneal injection (IP) twice a week until they reached the humane point. Different dosages were used for the injection, 50 mg/kg of CBD was identified as the optimal dosage with the greatest extend in healthspan of the treated mice. CBD was dissolved in 5% DMSO and 5% polyethylene glycol (PEG) in sterile saline and stored at −80° C. for up to 1 month.
# [4] = wildtype and LMNA^G609G/G609G MEFs
# [5] = 50 mg/kg CBD IP twice a week from 2 months old
structure (smiles),measurement,setting,value
"C=C(C)[C@@H]1CCC(C)=C[C@H]1c1c(O)cc(CCCCC)cc1O [CBD, Cannabidiol]",progerin levels,[1]; MEFs,not affected
same,p16 level,[1]; [4],downregulate
same,p21 level,[1]; [4],downregulate
same,relative nuclear circularity,LMNA^G609G/G609G MEFs,significantly increased the relative nuclear circularity
same,effect on PDL,"[2]; 10 μM CBD, 4 and 8 days of treatment",increased the PDL to the greatest extent
same,effect on PDL (toxicity effect),"[2]; 50 μM CBD, 4 days",decrease in PDL
same,optimal concentration (PDL),"[2]; MEFs, 4 and 8 days of treatment",10 µM
same,increase in maximum healthspan,[3]; [5],19.8%
same,increase in median healthspan,[3]; [5],8%
same,increase of healthspan (FIG. 6b legend),[3]; 50 mg/kg CBD twice a week from 2 months old,11.2%
same,optimal dosage (greatest extend in healthspan),"[3]; IP twice a week, from 2 months old",50 mg/kg
